Reference: ChEMBL document CHEMBL3046386, “Cyclophosphamide analogues: synthesis, spectroscopic study, and antitumor activity of diazaphosphorinanes” (Med Chem Res, 2011)

Legend:
[1] = Lipophilicity, log P of the compound; conditions: octanol/water
[2] = Distribution coefficient, log D of the compound; conditions: octanol/water
K562 = test: Antiproliferative activity against Homo sapiens (human) K562 cells after 48 hr by MTT assay; assay type: functional, cell-based; conditions: K562, 48 h

Compound: Cc1ccc(OP2(=O)NCC(C)(C)CN2)cc1
- logP [1]: 1.55
- logD [2]: 0.73

Compound: CC1(C)CNP(=O)(Nc2ccc(S(N)(=O)=O)cc2)NC1
- logP [1]: -0.78
- logD [2]: -1
- IC50 (K562): 58.2 µM

Compound: CC1(C)CNP(=O)(NC(=O)c2ccccc2[N+](=O)[O-])NC1
- logP [1]: 0.34
- logD [2]: -0.04
- IC50 (K562): 6.87 µM

Compound: CC1(C)CNP(=O)(NC(=O)c2cccc([N+](=O)[O-])c2)NC1
- logP [1]: 0.34
- logD [2]: -0.03
- IC50 (K562): 5.08 µM

Compound: CC1(C)CNP(=O)(NC(=O)c2ccc([N+](=O)[O-])cc2)NC1
- logP [1]: 0.34
- logD [2]: -0.03
- IC50 (K562): 6.49 µM

Compound: O=P1(N(CCCl)CCCl)NCCCO1 (stereo unspecified) [CYCLOPHOSPHAMIDE ANHYDROUS]
- logP [1]: 1.12
- logD [2]: 0.05
